“Also recorded” adds a separate entry of the source.
Experiments:
Renal Cancer, RXF-393 = assay: NCI in vitro anti-cancer cell line screen (SRB); settings: Homo sapiens, RXF 393, 48 h
Protocol: (§1) The human tumor cell lines used in the cancer screen panel were grown in RPMI 1640 medium containing 5% FBS and 2 mM L-glutamine. The cells were inoculated into 96-well microtiter plates in 100 μl at plating density ranging from 5000 to 40,000 cell/well. […] Following drug addition, the plates were incubated for an additional 48 h. The assay was terminated by the addition of cold 10% TCA. The supernatant was discarded, and the plates were washed five times with water and air dried. Sulforhodamine B (SRB) solution (100 μl) at 0.4% (w/v) in 1% acetic acid was added to each well, and plates were incubated for 10 min at room temperature. After staining, unbound dye was removed by washing five times with 1% acetic acid and the plates were air dried. Bound stain was subsequently solubilized with 10 mM trizma base, and the absorbance was read on an automated plate reader at a wavelength of 515 nm.
(§2) A sulforhodamine B (SRB) end point was used to calculate the median growth inhibition (GI50). GI50 refers to the concentration at which the drug inhibits tumor cell growth by 50%.

ARPE19 cells [1] = assay: 7-ketocholesterol-mediated cytotoxicity, 24-well CCK-8 viability and images; settings: 24 hr
laser-induced CNV = assay: Laser-induced choroidal neovascularization (CNV) rat model; format: in vivo, Brown Norway rats; settings: day 7
Protocol: FIG. 2 depicts the results of choroidal neovascularization (CNV) suppression after a single intravitreal injection 48 hours after laser exposure. Box-and-whisker plot representations of volume of CNV lesions from rats treated with a single intravitreal injection as indicated in the x-axis. The y-axis represents neovessel lesion volume expressed in cubic microns. The number of lesions evaluated per condition (n) is depicted in the graph. Values inside of the box represent the central 50% of measurements. The horizontal line inside the box corresponds to the median values, and the vertical lines outside the boxes correspond to variances of measurements. *Highly significant difference compared with oleic acid and PBS.
FIG. 3 depicts the results of daily application of sterculic acid-containing drops to suppress laser-induced CNV. (A) Representative flat-mount projections from confocal microscope Z-series 7 days after laser. The red channel identifies vessels (Isolectin IB-4). Conditions are indicated above each projection. (B) Box-and-whisker plot representations of volume of CNV lesions from rats treated with daily drops as indicated in the x-axis. The y-axis represents neovessel lesion volume expressed in cubic microns. The number of lesions evaluated per condition (n) is depicted in the graph. Values inside of the box represent the central 50% of measurements. […]
FIG. 4 depicts the dose response of CNV suppression after daily application of sterculic acid-containing drops after laser exposure. […] The number of lesions evaluated per condition (n) is depicted in the graph. […]
Laser-induced CNV, flat mount preparations, and lesion evaluations were performed following established methods. […] Neovessels were visualized with confocal microscopy using choroid/RPE flat mounts labelled with Alexa Fluor 568-Isolectin IB4 to identify endothelial cells and neovessel volumes were quantified using VOLOCITY software. […]

ARPE-19 cells = assay: qRT-PCR of cytokines in TNF-α treated cells; format: cell-based
Protocol: FIGS. 17A-17D depict the mRNA expressions of (A) IL-1β, (B) IL-8, (C) IκBα, and (D) GRP78 in response to 2 ng/ml TNF-α, 1 μM sterculic acid, 1 μM stearic acid, or the combinations of TNF-α with either sterculic acid or stearic acid. n=3. Error bars indicate the standard deviations.
Tumor necrosis factor-alpha (TNF-α, Roche Diagnostics, Indianapolis, Ind.) was diluted in PBS to make 10 μg/ml stock solution and stored at −20° C. In order to test the anti-inflammation effect of fatty acids against TNF-α, ARPE-19 cells were treated with 2 ng/ml of TNF-α for 24 hr in serum-free medium with or without 1 μM fatty acids. The mRNA expressions of cytokines were then examined using qRT-PCR. Each treatment was performed three times with quadruplicate measurements in each experiment, in 24-well plates.
The RNA was extracted using RNeasy Mini Kit (Qiagen, Valencia, Calif.). The reverse transcription was performed with reagents and kits from Invitrogen. Quantification of mRNA expression was performed using the Taqman gene expression assays and the following primers (VEGFa, Hs00173626_m1; IL-1β, Hs01555413_m1; IL-6, Hs00174131_m1; IL-8, Hs00174103_m1; IκBα, Hs00153283_m1; GRP78, Hs99999174_m1; CHOP, Hs01090850_m1; NOX2, Hs00166163_m1; NOX4, Hs01558199_m1; SCD, Hs00748952 s1; TNF-α, Hs00174128_m1; TGF-β1, Hs00998133_m1; GAPD, 4352934e). GAPD expression was used as an endogenous standard. All qRT-PCR experiments were measured in triplicates in an ABI 7500 Real-Time PCR Instrument (Applied Biosystems, Foster City, Calif.). The results of each treatment were normalized and presented in percentage relative to the vehicle-only control.

ARPE19 cells [2] = assay: Cell Counting Kit-8 viability assay, 15 μM 7KCh-induced cytotoxicity; settings: 1 μM fatty acid + 15 μM 7KCh
Protocol: 4×10^4 cells were seeded onto wells of a 96 well plate. […] Cell viability was determined as celluar dehydrogenase activity and expressed as the percentage of compound treated cells relative to that of untreated controls. error bar: standard deviation, n=4.
The kit allows sensitive colorimetric assays for the determination of the number of viable cells in cell proliferation and cytotoxicity assays. The amount of the formazan dye generated by the activity of dehydrogenases in cells is directly proportional to the number of living cells.
1) Cells were cultivated in a 96 well cell plate (Costar#3599, Corning Incorp, Corning, N.Y.).
2) The cell suspension (40,000 cells/100 μL) were added to 100 μL culture media per well and stood for 15 min at room temperature and cultured at 37° C. in a humidified 5% CO2 atmosphere.
3) Approximately 19 hr after seeding, when the cells were fully confluent, the cells were treated with either DMSO or 1 μM fatty acid in 200 μL of serum free media and subsequently added with 15 μM 7KCh in HPBCD. Then, the plate was swirled for mixing. The cells were also treated with DMSO and HPBCD, which served as vehicle control. The final DMSO and HPBCD concentrations in the media were in the range of 0.1% and 0.0675%, respectively.
Cell viability was expressed as the percentage of compound treated cells relative to that of untreated controls. Prior to measure cell viability, the cells were imaged live by Nikon TE 2000-U inverted fluorescent microscope.

Melanoma, UACC-62 = assay: NCI in vitro anti-cancer cell line screen (SRB); settings: Homo sapiens, UACC-62, 48 h
Protocol: as §1, §2

Melanoma, LOX-IMVI = assay: NCI in vitro anti-cancer cell line screen (SRB); settings: Homo sapiens, 48 h
Protocol: as §1, §2

Compound: CCCCCCCCC1=C(CCCCCCCC(=O)O)C1 [sterculic acid, 8-(2-octacyclopropen-1-yl)octanoic acid]
- GI50 (Renal Cancer, RXF-393): 10 µM
- protection of cell confluency and morphology (images) (ARPE19 cells [1]; 0.5 μM co-treatment with 12 μM 7KCh): maintain both cell confluency and cell morphology similar to the control; also recorded: apparent protection
- protection of cell confluency and morphology (images) (ARPE19 cells [1]; 1 μM co-treatment with 12 μM 7KCh): maintain both cell confluency and cell morphology similar to the control; also recorded: apparent protection
- co-treatment concentration that completely offsets the 7KCh cytotoxic effect (ARPE19 cells [1]; 12 μM 7KCh, CCK-8): 1 µM
- concentration at which apparent protection is seen (ARPE19 cells [1]; 12 μM 7KCh, CCK-8): 0.5 µM
- CNV suppression (laser-induced CNV; daily drops 0.1 mM after laser, compared to PBS): 66%
- CNV suppression (laser-induced CNV; daily drops 1 mM after laser, compared to oleic acid): 45%
- CNV suppression (laser-induced CNV; single intravitreal injection 1 mM in 1 μL, 48 hours after laser, compared to oleic acid and PBS injection): 33%
- induction of GRP78 mRNA expression (ARPE-19 cells; 2 ng/ml TNF-α alone or with 1 μM fatty acid, 24 hr, FIG. 17D): small measurable effect
- antagonist effect to the cytokine inductions by TNF-α (ARPE-19 cells; 1 μM fatty acid + 2 ng/ml TNF-α, 24 hr): did not show any antagonist effect
- antagonist effect to TNF-α at 5 μM (ARPE-19 cells; 5 μM, data not shown): failed to antagonize
- protective effect against cytotoxicity by 7KCh (summary of the viability assays) (ARPE19 cells [2]): greatest protective effect
- GI50 (Melanoma, UACC-62): 1 µM
- GI50 (Melanoma, LOX-IMVI): 1 µM
